# According to patent publication US20150105252A1, “SUBSTITUTED PYRAZOLES AS HERBICIDES” (E I DU PONT DE NEMOURS AND COMPANY, priority 2013, published 2015):
# Assays:
# ryegrass, Italian = experiment: Test C preemergence; type: in vivo, Lolium multiflorum
# Method in brief: (§1)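 Visual rating, 0–100 scale (0 no effect, 100 complete control), vs untreated controls after 13–15 d greenhouse. Pre: seeds in loam/sand, treated at sowing. Post: plants in peat-based mix, 1- to 4-leaf (2–18 cm). Solvent + surfactant formulation, non-phytotoxic.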
# pigweed [1] = experiment: Test A preemergence; type: in vivo, Amaranthus retroflexus; settings: preemergence
# Method in brief: (§2)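 Both timings tested concurrently in loam/sand soil: preemergence by directed soil spray, postemergence on plants of 2–10 cm at the one- to two-leaf stage. Greenhouse holding period was approximately 10 days before visual injury assessment (0–100, 0 = no effect).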
# pigweed [2] = experiment: Test C preemergence; type: in vivo, Amaranthus retroflexus
# Method in brief: as §1
# crabgrass, large = experiment: Test C preemergence; type: in vivo, Digitaria sanguinalis
# Method in brief: as §1
# morningglory [3] = experiment: Test A postemergence; type: in vivo, Ipomoea spp.
# Method in brief: as §2
# corn = experiment: Test A postemergence; type: in vivo, Zea mays
# Method in brief: as §2
# sedge, umbrella = experiment: Test B flood; type: in vivo, Cyperus difformis; settings: 250 g ai/ha, visual rating on 0 to 100 scale (0 no effect, 100 complete control), 13 to 15 days
# Method in brief: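 At two leaves, seedlings received the test compound via the paddy water, pots having been flooded 3 cm over the soil surface and kept so. Greenhouse-held for 13 to 15 days, then judged by eye against controls on a scale running 0 (no effect) to 100 (complete control).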
# soybean = experiment: Test C preemergence; type: in vivo, Glycine max
# Method in brief: as §1
# morningglory [4] = experiment: Test A preemergence; type: in vivo, Ipomoea spp.; settings: preemergence
# Method in brief: as §2
# velvetleaf = experiment: Test A postemergence; type: in vivo, Abutilon theophrasti
# Method in brief: as §2
# morningglory [5] = experiment: Test C preemergence; type: in vivo, Ipomoea coccinea
# Method in brief: as §1
# foxtail, giant = experiment: Test A postemergence; type: in vivo, Setaria faberii
# Method in brief: as §2
# galium = experiment: Test C preemergence; type: in vivo, Galium aparine
# Method in brief: as §1
# nutsedge, yellow = experiment: Test C preemergence; type: in vivo, Cyperus esculentus
# Method in brief: as §1
# [6] = preemergence, 31 g ai/ha, visual rating, scale 0 to 100 (0 no effect, 100 complete control), 13 to 15 days
# [7] = preemergence, 62 g ai/ha, scale 0 to 100 (0 no effect, 100 complete control), 13 to 15 days
# [8] = preemergence, 125 g ai/ha, scale 0 to 100, 0 is no effect, 100 is complete control
# [9] = 125 g ai/ha, visual injury, 0 to 100 scale, approx. 10 days
# [10] = 500 g ai/ha, visual injury after approx. 10 days, 0 to 100 scale (0 no effect, 100 complete control)
# [11] = Postemergence, 500 g ai/ha, visual rating after approx. 10 days, 0 to 100 scale (0 no effect, 100 complete control)
# [12] = postemergence, 125 g ai/ha, about 10 days, visual rating on 0 to 100 scale (0 no effect, 100 complete control)
# [13] = preemergence, 125 g ai/ha, 13 to 15 days, scale 0 to 100, 0 = no effect, 100 = complete control
# [14] = preemergence, 250 g ai/ha, scale 0 to 100, 0 is no effect, 100 is complete control
# [15] = 125 g ai/ha, visual injury approx. 10 days after treatment
# [16] = Postemergence, 125 g ai/ha, 0 to 100 scale, 0 no effect, 100 complete control
# [17] = Postemergence, 500 g ai/ha, 0 to 100 scale (0 no effect, 100 complete control)
structure (smiles),measurement,setting,value
CCCc1cc(C(=O)NCC(F)(F)F)nn1Cc1ccnc(C(F)(F)F)c1 [Compound 105],"Plant response rating (scale of 0 to 100), Ryegrass, Italian","ryegrass, Italian; Preemergence, 250 g ai/ha",95
same,"Ryegrass, Italian plant response rating","ryegrass, Italian; [6]",85
same,"Ryegrass, Italian plant response rating","ryegrass, Italian; [7]",95
same,"Ryegrass, Italian plant response rating","ryegrass, Italian; [8]",95
same,Pigweed plant response rating,pigweed [1]; [9],100
same,Pigweed plant response rating,pigweed [1]; [10],100
same,"Plant response rating (scale of 0 to 100), Pigweed","pigweed [2]; Preemergence, 250 g ai/ha",100
same,Pigweed plant response rating,pigweed [2]; [6],100
same,Pigweed plant response rating,pigweed [2]; [7],100
same,Pigweed plant response rating,pigweed [2]; [8],100
same,"Plant response rating (scale of 0 to 100), Crabgrass, Large","crabgrass, large; Preemergence, 250 g ai/ha",100
same,"Crabgrass, Large plant response rating","crabgrass, large; [6]",100
same,"Crabgrass, Large plant response rating","crabgrass, large; [7]",100
same,"Crabgrass, Large plant response rating","crabgrass, large; [8]",100
same,Morningglory plant response rating,morningglory [3]; [11],100
same,Morningglory plant response rating,morningglory [3]; [12],100
same,Corn plant response rating,corn; [11],100
same,Corn plant response rating,corn; [12],80
same,"Plant response rating, Sedge, Umbrella","sedge, umbrella",95
same,"Plant response rating (scale of 0 to 100), Soybean","soybean; Preemergence, 250 g ai/ha",95
same,Soybean plant response rating,soybean; [6],70
same,Soybean plant response rating,soybean; [7],70
same,Soybean plant response rating,soybean; [8],95
same,Morningglory plant response rating,morningglory [4]; [9],100
same,Morningglory plant response rating,morningglory [4]; [10],100
same,Velvetleaf plant response rating,velvetleaf; [11],100
same,Velvetleaf plant response rating,velvetleaf; [12],100
same,"Plant response rating (scale of 0 to 100), Morningglory","morningglory [5]; Preemergence, 250 g ai/ha",100
same,Morningglory plant response rating,morningglory [5]; [6],100
same,Morningglory plant response rating,morningglory [5]; [7],100
same,Morningglory plant response rating,morningglory [5]; [8],100
same,"Foxtail, Giant plant response rating","foxtail, giant; [11]",100
same,"Foxtail, Giant plant response rating","foxtail, giant; [12]",100
same,"Plant response rating (scale of 0 to 100), Galium","galium; Preemergence, 250 g ai/ha",100
same,Galium plant response rating,galium; [6],100
same,Galium plant response rating,galium; [7],100
same,Galium plant response rating,galium; [8],100
same,"Plant response rating (scale of 0 to 100), Nutsedge, Yellow","nutsedge, yellow; Preemergence, 250 g ai/ha",95
same,"Nutsedge, Yellow plant response rating","nutsedge, yellow; [6]",50
same,"Nutsedge, Yellow plant response rating","nutsedge, yellow; [7]",85
same,"Nutsedge, Yellow plant response rating","nutsedge, yellow; [8]",95
CCCc1cc(C(=O)NOCC)nn1Cc1ccnc(C(F)(F)F)c1 [Compound 185],"Ryegrass, Italian plant response rating","ryegrass, Italian; [6]",0
same,"Ryegrass, Italian plant response rating","ryegrass, Italian; [7]",30
same,"Plant response rating, Ryegrass, Italian","ryegrass, Italian; [13]",90
same,"Ryegrass, Italian plant response rating","ryegrass, Italian; [14]",90
same,Pigweed plant response rating (0 to 100 scale),pigweed [1]; [15],0
same,Pigweed plant response rating,pigweed [1]; [10],0
same,Pigweed plant response rating,pigweed [2]; [6],100
same,Pigweed plant response rating,pigweed [2]; [7],100
same,"Plant response rating, Pigweed",pigweed [2]; [13],100
same,Pigweed plant response rating,pigweed [2]; [14],100
same,"Crabgrass, Large plant response rating","crabgrass, large; [6]",80
same,"Crabgrass, Large plant response rating","crabgrass, large; [7]",100
same,"Plant response rating, Crabgrass, Large","crabgrass, large; [13]",100
same,"Crabgrass, Large plant response rating","crabgrass, large; [14]",100
same,Morningglory plant response rating,morningglory [3]; [16],20
same,Morningglory plant response rating,morningglory [3]; [17],90
same,Corn plant response rating,corn; [17],90
same,Corn plant response rating,corn; [12],0
same,"Plant response rating, Sedge, Umbrella","sedge, umbrella",80
same,Soybean plant response rating,soybean; [6],5
same,Soybean plant response rating,soybean; [7],5
same,"Plant response rating, Soybean",soybean; [13],25
same,Soybean plant response rating,soybean; [14],65
same,Morningglory plant response rating (0 to 100 scale),morningglory [4]; [15],40
same,Morningglory plant response rating,morningglory [4]; [10],90
same,Velvetleaf plant response rating,velvetleaf; [16],10
same,Velvetleaf plant response rating,velvetleaf; [17],100
same,Morningglory plant response rating,morningglory [5]; [6],15
same,Morningglory plant response rating,morningglory [5]; [7],75
same,"Plant response rating, Morningglory",morningglory [5]; [13],85
same,Morningglory plant response rating,morningglory [5]; [14],98
same,"Foxtail, Giant plant response rating","foxtail, giant; [17]",90
same,"Foxtail, Giant plant response rating","foxtail, giant; [12]",80
same,Galium plant response rating,galium; [6],80
same,Galium plant response rating,galium; [7],100
same,"Plant response rating, Galium",galium; [13],95
same,Galium plant response rating,galium; [14],100
same,"Nutsedge, Yellow plant response rating","nutsedge, yellow; [6]",5
same,"Nutsedge, Yellow plant response rating","nutsedge, yellow; [7]",40
same,"Plant response rating, Nutsedge, Yellow","nutsedge, yellow; [13]",75
same,"Nutsedge, Yellow plant response rating","nutsedge, yellow; [14]",75
